As usually defined, the IC50 is the point on the concentration scale where inhibition reaches its midpoint. One may read the solubility as the dissolved amount per volume that the medium holds. Read a low solubility as a poorly soluble substance. Usually logD stands for the decadic logarithm of the distribution of all forms, ionised or not, between an organic phase and buffer at a given pH. Read a low logD as lower lipophilicity. For orientation: inhibition means the drop in the measured response relative to a control, in per cent. A word on the Cmax: it is the highest concentration seen after dosing. As usually defined, the AUC is the area under the concentration-time curve, a measure of exposure.

These results are taken from ChEMBL document CHEMBL1149679 (Bioorg Med Chem Lett, 2007).

Data set [1] deals with T1, Polyunsaturated fatty acid lipoxygenase ALOX15 (Oryctolagus cuniculus, UniProt P12530).
T1 sequence (P12530 whole entry): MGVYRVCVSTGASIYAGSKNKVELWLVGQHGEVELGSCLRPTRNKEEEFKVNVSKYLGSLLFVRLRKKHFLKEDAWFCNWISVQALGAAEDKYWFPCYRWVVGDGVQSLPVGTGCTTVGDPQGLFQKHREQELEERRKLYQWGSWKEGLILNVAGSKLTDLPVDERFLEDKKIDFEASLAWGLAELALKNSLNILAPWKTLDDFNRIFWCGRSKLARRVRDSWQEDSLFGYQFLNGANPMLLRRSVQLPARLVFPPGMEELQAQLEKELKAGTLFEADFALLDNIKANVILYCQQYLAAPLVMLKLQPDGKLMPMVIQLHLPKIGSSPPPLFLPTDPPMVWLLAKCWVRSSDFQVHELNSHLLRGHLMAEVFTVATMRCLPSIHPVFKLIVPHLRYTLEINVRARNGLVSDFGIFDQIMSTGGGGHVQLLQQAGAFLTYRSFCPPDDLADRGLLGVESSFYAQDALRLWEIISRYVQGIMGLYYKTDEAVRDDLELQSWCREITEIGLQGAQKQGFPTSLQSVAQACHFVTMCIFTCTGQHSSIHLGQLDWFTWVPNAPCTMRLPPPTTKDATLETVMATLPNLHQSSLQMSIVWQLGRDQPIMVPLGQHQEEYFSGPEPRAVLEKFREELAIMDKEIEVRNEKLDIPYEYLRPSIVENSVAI
Description: Inhibition of rabbit 15-lipoxygenase in presence of arachidonic acid.

Data set [2] can be described thus: Aqueous solubility at pH6.5. In kind it is physicochemical. The settings on record: buffer, pH 6.5.
The nature of data set [3]: Hydrophilicity, log D at pH 6.5. In kind it is physicochemical. The following applies: buffer.
For data set [4], the target named is T2, Polyunsaturated fatty acid 5-lipoxygenase (Homo sapiens) (UniProt P09917).
T2 sequence (whole entry): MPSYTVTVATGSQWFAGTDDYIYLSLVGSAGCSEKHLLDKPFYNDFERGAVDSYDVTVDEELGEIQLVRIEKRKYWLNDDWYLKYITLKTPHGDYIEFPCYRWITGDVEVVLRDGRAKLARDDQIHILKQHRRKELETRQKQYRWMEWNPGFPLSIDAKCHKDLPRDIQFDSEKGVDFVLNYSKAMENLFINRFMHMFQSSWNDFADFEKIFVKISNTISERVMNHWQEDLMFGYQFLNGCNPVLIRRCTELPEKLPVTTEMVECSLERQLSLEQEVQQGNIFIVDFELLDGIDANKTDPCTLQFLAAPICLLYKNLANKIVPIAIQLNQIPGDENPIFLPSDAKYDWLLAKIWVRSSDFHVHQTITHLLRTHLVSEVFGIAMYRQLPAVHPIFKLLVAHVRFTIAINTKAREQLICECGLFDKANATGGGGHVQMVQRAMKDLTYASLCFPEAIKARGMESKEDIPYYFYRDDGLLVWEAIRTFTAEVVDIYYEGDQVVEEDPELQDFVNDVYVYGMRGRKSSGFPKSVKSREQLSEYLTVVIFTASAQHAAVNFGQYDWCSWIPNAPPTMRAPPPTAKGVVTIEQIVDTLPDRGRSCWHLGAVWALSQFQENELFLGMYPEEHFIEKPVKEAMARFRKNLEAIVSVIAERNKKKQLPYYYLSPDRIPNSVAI
Kind of data set: Inhibition of human 5-lipoxygenase at 10 uM.

The target in data set [5] is T3, Polyunsaturated fatty acid 5-lipoxygenase (Homo sapiens, UniProt P09917).
T3 sequence (P09917 whole entry): T2 sequence (whole entry)
Description: Inhibition of 5-lipoxygenase.

Data set [6] in a line: Cmax in Sprague-Dawley rat at 7 mg/kg, po. In kind it is ADME, organism-based. Further details: dose 7 mg/kg, route oral. The following applies: in vivo.
Data set [7] deals with T4, Polyunsaturated fatty acid lipoxygenase ALOX12 (Homo sapiens) (UniProt P18054).
T4 sequence (whole entry): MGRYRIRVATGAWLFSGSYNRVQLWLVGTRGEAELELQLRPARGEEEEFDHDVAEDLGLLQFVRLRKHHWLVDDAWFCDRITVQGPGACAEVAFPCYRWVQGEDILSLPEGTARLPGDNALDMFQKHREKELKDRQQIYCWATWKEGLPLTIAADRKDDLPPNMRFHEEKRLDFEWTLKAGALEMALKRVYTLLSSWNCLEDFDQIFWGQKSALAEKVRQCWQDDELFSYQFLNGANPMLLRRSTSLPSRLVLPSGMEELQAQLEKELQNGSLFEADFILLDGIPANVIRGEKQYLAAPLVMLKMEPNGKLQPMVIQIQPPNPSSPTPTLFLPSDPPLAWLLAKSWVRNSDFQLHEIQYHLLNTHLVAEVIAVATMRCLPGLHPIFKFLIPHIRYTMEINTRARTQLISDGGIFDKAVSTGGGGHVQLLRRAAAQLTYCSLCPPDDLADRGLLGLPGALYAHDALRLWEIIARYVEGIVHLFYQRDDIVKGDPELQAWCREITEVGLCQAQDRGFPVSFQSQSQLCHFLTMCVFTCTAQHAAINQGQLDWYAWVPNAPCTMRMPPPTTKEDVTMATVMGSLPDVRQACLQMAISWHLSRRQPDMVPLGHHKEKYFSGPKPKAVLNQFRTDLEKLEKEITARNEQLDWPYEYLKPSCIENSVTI
Description: Inhibition of platelet 12-lipoxygenase at 10 uM.

Data set [8] has as its target T1, Polyunsaturated fatty acid lipoxygenase ALOX15. Description: Inhibition of rabbit 15-lipoxygenase in presence of linoleic acid.
Data set [9] concerns the target T5, Polyunsaturated fatty acid lipoxygenase ALOX15B (Homo sapiens) (UniProt O15296).
T5 sequence (whole entry): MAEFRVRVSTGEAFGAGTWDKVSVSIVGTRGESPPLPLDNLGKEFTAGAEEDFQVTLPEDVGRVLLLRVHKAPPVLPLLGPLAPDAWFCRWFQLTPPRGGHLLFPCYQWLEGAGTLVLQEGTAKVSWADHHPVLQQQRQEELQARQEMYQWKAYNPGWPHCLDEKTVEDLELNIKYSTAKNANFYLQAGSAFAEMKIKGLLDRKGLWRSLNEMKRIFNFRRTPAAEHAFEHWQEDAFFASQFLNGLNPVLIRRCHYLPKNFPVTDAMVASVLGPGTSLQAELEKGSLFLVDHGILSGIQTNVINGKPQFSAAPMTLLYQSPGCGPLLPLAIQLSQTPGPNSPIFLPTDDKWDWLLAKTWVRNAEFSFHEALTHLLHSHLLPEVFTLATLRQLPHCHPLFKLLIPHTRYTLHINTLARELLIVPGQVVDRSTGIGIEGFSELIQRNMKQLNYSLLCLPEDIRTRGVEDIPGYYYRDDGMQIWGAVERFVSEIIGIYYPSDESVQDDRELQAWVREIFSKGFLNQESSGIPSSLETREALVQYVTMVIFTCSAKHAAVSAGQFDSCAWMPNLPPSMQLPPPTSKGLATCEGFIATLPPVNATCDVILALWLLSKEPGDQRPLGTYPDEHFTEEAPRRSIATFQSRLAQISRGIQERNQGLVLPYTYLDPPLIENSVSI
Kind of data set: Inhibition of human recombinant 15-lipoxygenase over-expressed in CHO cells at 10 uM. In kind it is cell-based.

In data set [10] the target is T6, Polyunsaturated fatty acid lipoxygenase ALOX12 (Homo sapiens, UniProt P18054).
T6 sequence (P18054 whole entry): T4 sequence (whole entry)
Kind of data set: Inhibition of platelet 12-lipoxygenase.

Data set [11] can be described thus: AUC in Sprague-Dawley rat at 7 mg/kg, po. The settings on record: plasma. In kind it is ADME, organism-based. Further details: dose 7 mg/kg, route oral.
In data set [12] the target is T2, Polyunsaturated fatty acid 5-lipoxygenase (Homo sapiens). Description: Inhibition of human 5-lipoxygenase at 3 uM.
The target in data set [13] is T4, Polyunsaturated fatty acid lipoxygenase ALOX12 (Homo sapiens). Description: Inhibition of platelet 12-lipoxygenase at 3 uM.

Turning to `CCCCCc1ccc(S(=O)(=O)NCCc2nc(-c3cccs3)[nH]c2-c2ccc(OC)cc2)cc1`, the IC50 in [1] is 13 nM; in data set [5], > 10000 nM; in [8] it was 6 nM; in data set [10], 9700 nM. Besides, the solubility in data set [2] was < 1 µg/mL. Besides, the logD in data set [3] is > 6. For the same molecule, the values for the inhibition in data set [4], in data set [7] and in data set [9] were 41%, 50% and 98%, respectively. Moreover, the Cmax in data set [6] was determined as 600 nM.

As to `CCCCN1CCN(S(=O)(=O)NCCc2nc(-c3cccs3)[nH]c2-c2ccc(OC)cc2)CC1`, the half-inhibitory concentration (IC50) in data set [1] came out at 50 nM; in [8], 14 nM. In data set [6], this molecule returned a Cmax of 1700 nM. This molecule displayed an AUC in [11] of 4.4 µM·h.

Take `CCCCCc1ccc(S(=O)(=O)NCCc2nc(-c3ccccc3)[nH]c2-c2ccc(OC)cc2)cc1`: the IC50 is 50 nM in [1] and 14 nM in data set [8]. Moreover, the inhibition in data set [12] stood at 15%; in [13], 45%; in [9], 83%.
